Results reported in PubChem BioAssay (NCI).
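Step 1: Grow cells in 96-well plates. Step 2: Expose to compound for 48 hours at 5 concentrations. Step 3: Interpolate endpoints linearly; if unreached, use highest concentration. GI50 is the concentration that inhibits growth by half. TGI marks complete inhibition of growth.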 Where a SMILES comes first, the peptide text is derived from it. The star is where a group is joined. ONb = O=[N+]([O-])c1ccc(CO*)cc1; Boc = CC(C)(C)OC(=O)*

How the values were obtained:
Assay in all cases: growth of human tumour cells (NCI), 48 h
A498 renal = tested on: A498 renal
CAKI-1 renal = tested on: CAKI-1 renal
EKVX NSCLC = tested on: EKVX NSCLC
K-562 leukemia = tested on: K-562 leukemia
NCI-H226 lung = tested on: NCI-H226 lung
NCI-H23 lung = tested on: NCI-H23 lung
SK-MEL-2 melanoma = tested on: SK-MEL-2 melanoma
UACC-62 melanoma = tested on: UACC-62 melanoma
A549 NSCLC = tested on: A549 NSCLC
MALME-3M melanoma = tested on: MALME-3M melanoma

## CSCCCNC(=O)c1csc(-c2csc(C(CNC(=O)OC(C)(C)C)CNC(=O)OC(C)(C)C)n2)n1
A498 renal
  TGI: > 100 µM
CAKI-1 renal
  TGI: > 100 µM
EKVX NSCLC
  TGI: > 100 µM
K-562 leukemia
  TGI: > 100 µM
NCI-H226 lung
  TGI: > 100 µM
NCI-H23 lung
  TGI: > 100 µM
SK-MEL-2 melanoma
  TGI: 73.7 µM
UACC-62 melanoma
  TGI: 40.4 µM

## C/C(=C/C(=O)Nn1c(Cc2ccccc2)n[nH]c1=O)C(=O)O
A549 NSCLC
  TGI: > 100 µM
CAKI-1 renal
  TGI: > 100 µM
EKVX NSCLC
  TGI: > 100 µM
K-562 leukemia
  TGI: > 100 µM
MALME-3M melanoma
  TGI: > 100 µM
NCI-H226 lung
  TGI: > 100 µM
NCI-H23 lung
  TGI: > 100 µM
SK-MEL-2 melanoma
  TGI: > 100 µM
UACC-62 melanoma
  TGI: > 100 µM

## O=S(=O)(O)ON=C1c2ccccc2-c2ccccc21
A498 renal
  TGI: > 100 µM
A549 NSCLC
  TGI: > 100 µM
CAKI-1 renal
  TGI: > 100 µM
EKVX NSCLC
  TGI: > 100 µM
K-562 leukemia
  TGI: > 100 µM
NCI-H226 lung
  TGI: > 100 µM
NCI-H23 lung
  TGI: > 100 µM
SK-MEL-2 melanoma
  TGI: > 100 µM
UACC-62 melanoma
  TGI: > 100 µM

## COC(=O)/C=C/c1ccc2c(c1)CC1(C2)Cc2cc3c(cc2C1=O)CCC3 (stereo unspecified)
A498 renal
  TGI: > 100 µM
A549 NSCLC
  TGI: > 100 µM
CAKI-1 renal
  TGI: > 100 µM
EKVX NSCLC
  TGI: > 100 µM
K-562 leukemia
  TGI: > 100 µM
MALME-3M melanoma
  TGI: > 100 µM
NCI-H226 lung
  TGI: > 100 µM
SK-MEL-2 melanoma
  TGI: > 100 µM
UACC-62 melanoma
  TGI: > 100 µM

## O=C(/C=C/c1ccc(O)c(O)c1)c1cc(O)cc(O)c1
A498 renal
  TGI: 33.4 µM
A549 NSCLC
  TGI: > 100 µM
CAKI-1 renal
  TGI: > 100 µM
EKVX NSCLC
  TGI: 57.4 µM
MALME-3M melanoma
  TGI: 27.6 µM
NCI-H226 lung
  TGI: 51.5 µM
NCI-H23 lung
  TGI: 26.4 µM
SK-MEL-2 melanoma
  TGI: 28.2 µM
UACC-62 melanoma
  TGI: 26.1 µM

## Nc1[nH]c(=S)nc2snnc12
A498 renal
  TGI: > 100 µM
A549 NSCLC
  TGI: > 100 µM
CAKI-1 renal
  TGI: > 100 µM
K-562 leukemia
  TGI: > 100 µM
MALME-3M melanoma
  TGI: > 100 µM
NCI-H226 lung
  TGI: > 100 µM
NCI-H23 lung
  TGI: > 100 µM
SK-MEL-2 melanoma
  TGI: > 100 µM
UACC-62 melanoma
  TGI: > 100 µM

## CCCCCCOP(=O)(OCCCCCC)C(NC(=O)OCC)(C(F)(F)F)C(F)(F)F
A498 renal
  TGI: > 100 µM
A549 NSCLC
  TGI: > 100 µM
CAKI-1 renal
  TGI: > 100 µM
EKVX NSCLC
  TGI: > 100 µM
K-562 leukemia
  TGI: > 100 µM
MALME-3M melanoma
  TGI: > 100 µM
NCI-H226 lung
  TGI: 66.2 µM
SK-MEL-2 melanoma
  TGI: 72.2 µM
UACC-62 melanoma
  TGI: > 100 µM

## CC1C2CC(C(S(=O)(=O)N3CCOCC3)/C2=N\O)C1(C)C (stereo unspecified)
A498 renal
  TGI: > 100 µM
A549 NSCLC
  TGI: > 100 µM
CAKI-1 renal
  TGI: > 100 µM
EKVX NSCLC
  TGI: > 100 µM
K-562 leukemia
  TGI: > 100 µM
MALME-3M melanoma
  TGI: > 100 µM
NCI-H226 lung
  TGI: > 100 µM
NCI-H23 lung
  TGI: > 100 µM
UACC-62 melanoma
  TGI: > 100 µM

## N#C/C(=C\NC(=S)c1ccncc1)c1nc2ccccc2s1
A498 renal
  TGI: > 100 µM
A549 NSCLC
  TGI: > 100 µM
CAKI-1 renal
  TGI: > 100 µM
EKVX NSCLC
  TGI: > 100 µM
K-562 leukemia
  TGI: > 100 µM
NCI-H226 lung
  TGI: > 100 µM
NCI-H23 lung
  TGI: > 100 µM
SK-MEL-2 melanoma
  TGI: > 100 µM
UACC-62 melanoma
  TGI: > 100 µM

## c1ccc2c(c1)ncn2C1CCCCO1 (stereo unspecified)
A549 NSCLC
  TGI: > 100 µM
EKVX NSCLC
  TGI: > 100 µM
K-562 leukemia
  TGI: > 100 µM
MALME-3M melanoma
  TGI: > 100 µM
NCI-H226 lung
  TGI: > 100 µM
NCI-H23 lung
  TGI: > 100 µM
SK-MEL-2 melanoma
  TGI: > 100 µM
UACC-62 melanoma
  TGI: > 100 µM

## CN1CCC(CN2c3ccccc3Sc3ccccc32)CC1
A498 renal
  TGI: 29 µM
A549 NSCLC
  TGI: 28.4 µM
CAKI-1 renal
  TGI: 18 µM
EKVX NSCLC
  TGI: 27.5 µM
K-562 leukemia
  TGI: 32.3 µM
NCI-H226 lung
  TGI: 28.8 µM
NCI-H23 lung
  TGI: 30 µM
SK-MEL-2 melanoma
  TGI: 31 µM
UACC-62 melanoma
  TGI: 28.2 µM

## CC(C)CC(NC(=O)OC(C)(C)C)C(=O)NC(CCC(=O)OCc1ccc([N+](=O)[O-])cc1)C(=O)OCc1ccc([N+](=O)[O-])cc1 (stereo not drawn) (Boc-Leu-Glu(ONb)-ONb; configuration not given here)
A498 renal
  TGI: > 100 µM
CAKI-1 renal
  TGI: > 100 µM
EKVX NSCLC
  TGI: > 100 µM
K-562 leukemia
  TGI: 39.4 µM
MALME-3M melanoma
  TGI: > 100 µM
NCI-H23 lung
  TGI: 59.4 µM
SK-MEL-2 melanoma
  TGI: 78.3 µM
UACC-62 melanoma
  TGI: 99.3 µM

## CN(C)c1ccc(C(Cc2ccc3ccccc3n2)Cc2ccc3ccccc3n2)cc1
CAKI-1 renal
  GI50: 2.2 µM
  TGI: > 100 µM
MALME-3M melanoma
  GI50: 1.96 µM
  TGI: > 100 µM
NCI-H226 lung
  GI50: 4.4 µM
  TGI: > 100 µM
UACC-62 melanoma
  GI50: 3.77 µM
  TGI: > 100 µM

## CCOc1ccc(/C=N/[N+](C)(C)C)cc1OCC
A549 NSCLC
  TGI: > 10 µM
CAKI-1 renal
  TGI: > 10 µM
K-562 leukemia
  TGI: > 10 µM
MALME-3M melanoma
  TGI: > 10 µM
NCI-H23 lung
  TGI: > 10 µM
UACC-62 melanoma
  TGI: > 10 µM

## O=C(Cc1nccc2c1[nH]c1ccccc12)OC1C#CCSCC#C/C=C\1 (stereo unspecified)
A498 renal
  TGI: > 100 µM
A549 NSCLC
  TGI: > 100 µM
CAKI-1 renal
  TGI: > 100 µM
EKVX NSCLC
  TGI: > 100 µM
K-562 leukemia
  TGI: > 100 µM
MALME-3M melanoma
  TGI: > 100 µM
NCI-H226 lung
  TGI: > 100 µM
UACC-62 melanoma
  TGI: > 100 µM

## CN1C(=O)[C@@H]2[C@@H]3c4ccccc4N(S(=O)(=O)C(F)(F)F)[C@@H]3c3[nH]c4ccccc4c3[C@@H]2C1=O
A498 renal
  TGI: > 100 µM
A549 NSCLC
  TGI: > 100 µM
CAKI-1 renal
  TGI: > 100 µM
EKVX NSCLC
  TGI: > 100 µM
K-562 leukemia
  TGI: > 100 µM
NCI-H226 lung
  TGI: > 100 µM
NCI-H23 lung
  TGI: > 100 µM
SK-MEL-2 melanoma
  TGI: > 100 µM
UACC-62 melanoma
  TGI: > 100 µM

## Fc1ccc2nc3n(c2c1)C(c1c(Cl)cccc1Cl)SC3 (stereo unspecified)
A498 renal
  TGI: > 100 µM
A549 NSCLC
  TGI: > 100 µM
CAKI-1 renal
  TGI: > 100 µM
MALME-3M melanoma
  TGI: > 100 µM
NCI-H226 lung
  TGI: > 100 µM
NCI-H23 lung
  TGI: > 100 µM
SK-MEL-2 melanoma
  TGI: > 100 µM
UACC-62 melanoma
  TGI: > 100 µM

## CCc1ccc2nc(-c3ccc(O)cc3)sc2c1
A498 renal
  TGI: 34.2 µM
A549 NSCLC
  TGI: 44.9 µM
CAKI-1 renal
  TGI: 26.4 µM
K-562 leukemia
  TGI: 54.5 µM
MALME-3M melanoma
  TGI: 36.8 µM
NCI-H226 lung
  TGI: 30.1 µM
NCI-H23 lung
  TGI: 34.1 µM
SK-MEL-2 melanoma
  TGI: 31.9 µM
UACC-62 melanoma
  TGI: 25.1 µM

## COc1ccc(/C=C2\CCC(CNc3ccc(OC)cc3)C2=O)cc1 (stereo unspecified)
A498 renal
  TGI: > 66 µM
A549 NSCLC
  TGI: > 94.1 µM
CAKI-1 renal
  TGI: 41 µM
EKVX NSCLC
  TGI: > 73.5 µM
K-562 leukemia
  TGI: > 33.3 µM
MALME-3M melanoma
  TGI: 47.3 µM
NCI-H226 lung
  TGI: > 100 µM
NCI-H23 lung
  TGI: 19 µM
UACC-62 melanoma
  TGI: 48 µM

## CCSc1cc(=O)n(C)c(=O)n1C
A498 renal
  TGI: > 100 µM
A549 NSCLC
  TGI: > 100 µM
CAKI-1 renal
  TGI: > 100 µM
EKVX NSCLC
  TGI: > 100 µM
MALME-3M melanoma
  TGI: > 100 µM
NCI-H226 lung
  TGI: > 100 µM
NCI-H23 lung
  TGI: > 100 µM
SK-MEL-2 melanoma
  TGI: > 100 µM
UACC-62 melanoma
  TGI: > 100 µM

## O=C(/C=C/c1ccc(/C=C/C(=O)c2ccc(O)cc2)cc1)c1ccc(O)cc1
A498 renal
  TGI: > 100 µM
A549 NSCLC
  TGI: > 100 µM
CAKI-1 renal
  TGI: > 100 µM
EKVX NSCLC
  TGI: > 100 µM
K-562 leukemia
  TGI: > 100 µM
NCI-H226 lung
  TGI: > 100 µM
NCI-H23 lung
  TGI: > 100 µM
SK-MEL-2 melanoma
  TGI: > 100 µM
UACC-62 melanoma
  TGI: > 100 µM

## CCCCCCCCCCCCCC[S+](C)C
A549 NSCLC
  TGI: 4.14 µM
CAKI-1 renal
  TGI: > 10 µM
EKVX NSCLC
  TGI: 9.87 µM
K-562 leukemia
  TGI: 4.68 µM
NCI-H226 lung
  TGI: 5.13 µM
NCI-H23 lung
  TGI: 4.09 µM
SK-MEL-2 melanoma
  TGI: 5.13 µM
UACC-62 melanoma
  TGI: 6.78 µM

## COC1(OC)CC(CO)(CNc2cc(Cl)nc(N)n2)C1
A549 NSCLC
  TGI: > 100 µM
CAKI-1 renal
  TGI: > 100 µM
EKVX NSCLC
  TGI: > 100 µM
K-562 leukemia
  TGI: > 100 µM
MALME-3M melanoma
  TGI: > 100 µM
NCI-H226 lung
  TGI: > 100 µM
NCI-H23 lung
  TGI: > 100 µM
SK-MEL-2 melanoma
  TGI: > 100 µM
UACC-62 melanoma
  TGI: > 100 µM

## Cc1ccc(OC2CC(n3cnc4ncnc(Cl)c43)OC2Oc2ccc(C)cc2)cc1 (stereo unspecified)
A498 renal
  TGI: > 100 µM
A549 NSCLC
  TGI: 82.5 µM
CAKI-1 renal
  TGI: 5.93 µM
EKVX NSCLC
  TGI: > 100 µM
MALME-3M melanoma
  TGI: > 100 µM
NCI-H226 lung
  TGI: 31 µM
NCI-H23 lung
  TGI: 82.5 µM
SK-MEL-2 melanoma
  TGI: 32.2 µM
UACC-62 melanoma
  TGI: 96.7 µM
